What was measured:
[1] = system: human MYD88; assay: Phage display screening of TIR domain-derived peptide library against immobilized MyD88, NGS analysis after four rounds; format: binding; conditions: for NGS count: phages remaining after fourth round
Protocol: (§1) First, vector cloning was performed by synthesizing a DNA sequence for expressing each peptide belonging to the library constructed in Example 1. Vector cloning was performed using p3/p8 phagemids.
(§2) After the fourth round, the remaining phages were obtained by binding to the finally immobilized target proteins, and peptide sequences binding to the target and the relative distribution of each sequence were confirmed by performing NGS analysis on phagemids in the phages.

[2] = system: human MAL; assay: Phage display screening of TIR domain-derived peptide library against immobilized MAL, NGS analysis after four rounds; format: binding; conditions: for NGS count: phages remaining after fourth round
Protocol: as §1, §2

[3] = biological target: human MAL (human) (UniProt P58753); assay: P3 phage display panning on plate-immobilised MAL, after round 4, NGS
Chain of UniProt P58753 (P58753 79-221 limits assumed): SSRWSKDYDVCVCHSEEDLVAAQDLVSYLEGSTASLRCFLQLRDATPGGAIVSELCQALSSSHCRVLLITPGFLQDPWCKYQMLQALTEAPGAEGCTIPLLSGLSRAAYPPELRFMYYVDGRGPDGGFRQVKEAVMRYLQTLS

[4] = P3_MyD88: library displayed on P3 coat protein
[5] = P3_MyD88: relative distribution of the sequence in NGS
[6] = P8_MyD88: library displayed on P8 coat protein
[7] = P8_MyD88: relative distribution of the sequence in NGS
[8] = P8_MAL: library displayed on P8 coat protein
[9] = P8_MAL: relative distribution of the sequence in NGS
[10] = P3_MAL: library displayed on P3 coat protein
[11] = P3_MAL: relative distribution of the sequence in NGS

Row | Molecule | NGS count [1, 6] | Population [1, 7] | NGS count [2, 10] | Population [2, 11] | further results
1 | RKGDLISDELLIAIEE | – | – | – | – | NGS count [1, 4]: 2452; Population [1, 5]: 0.71%
2 | SPQEQDGFWVRLIEAL | 1842 | 0.71% | – | – | –
3 | GLSWGPYEWWMGLYDA | 1965 | 0.76% | – | – | –
4 | DYASSTWWLRELLQIA | 4111 | 1.58% | – | – | –
5 | AFFWAQLKSVLGNPTM | – | – | – | – | NGS count [2, 8]: 28801; Population [2, 9]: 8.90%
6 | YLRADDSWFWEKLLYA | 4067 | 1.57% | – | – | –
7 | LKWGDPYFWSKLRYAM | – | – | 5128 | 1.93% | NGS count [1, 4]: 8310; Population [1, 5]: 2.42%
8 | SLLYDHLRWLGIRAFL | – | – | – | – | NGS count [2, 8]: 2576; Population [2, 9]: 0.80%
9 | NQWRNALTAAANLSGW | – | – | 25831 | 9.71% | NGS count [2, 8]: 848; NGS count [1, 4]: 28662; Population [1, 5]: 8.35%
10 | WFMMKFRTVLDHVNDV | – | – | – | – | NGS count [2, 8]: 2269
11 | LVAHEISKKMKIFATI | – | – | 1671 | 0.63% | NGS count [1, 4]: 17452; Population [1, 5]: 5.08%
12 | WALDELLKILYANETM | 10515 | 4.05% | – | – | –
13 | KLFWEKFKEFFLPSLSR | – | – | – | – | NGS count [2, 8]: 4888; Population [2, 9]: 1.51%
14 | GFLYQAFAREGFKIFM | – | – | 1764 | 0.66% | NGS count [1, 4]: 2579; Population [1, 5]: 0.75%
15 | WALDELLQILHARELF | 14404 | 5.55% | – | – | –
16 | LEANDSLFWDRLLYSL | 1465 | 0.56% | – | – | –
17 | DPQDLDWFYERLVSLL | 13137 | 5.06% | – | – | –
18 | DFLNWFIALKSTVIEN | – | – | – | – | NGS count [2, 8]: 867
19 | KNLFNELVSKNIRTFM | – | – | 3259 | 1.22% | NGS count [1, 4]: 8543; Population [1, 5]: 2.49%
20 | HQAFWNRLWAKLKPPT | – | – | 1932 | 0.73% | –
21 | SLRKNLVSNLIEEFKR | – | – | 3569 | 1.34% | –
22 | DWVWDYLLPNLEGPAG | 19394 | 7.47% | – | – | –
23 | WALQELVKILQAKIFL | – | – | – | – | NGS count [2, 8]: 227; Population [2, 9]: 0.07%
24 | HFFWIQLKSILGETSF | – | – | – | – | NGS count [2, 8]: 3624; Population [2, 9]: 1.12%
25 | YASSSWALDELLRILY | 2327 | 0.90% | – | – | –

Row | Molecule | NGS count [1, 6] | Population [1, 7] | NGS count [2, 10] | Population [2, 11] | further results
26 | YLLLSVFQTIFARRTE | 7165 | 2.76% | – | – | –
27 | SEFIQKIILWMNPKIV | – | – | – | – | NGS count [2, 8]: 4458; Population [2, 9]: 1.38%
28 | DPQDLEWFYERLFSQM | 4488 | 1.73% | – | – | –
29 | DSLFWDRLLYSLHVTE | 7586 | 2.92% | – | – | –
30 | DTKLKKGESIAPELLR | – | – | – | – | NGS count [2, 8]: 5617; Population [2, 9]: 1.74%; NGS count [1, 4]: 2465; Population [1, 5]: 0.72%
31 | KWFWDKLIYALSRNPH | – | – | 2796 | 1.05% | –
32 | KLIQGWFLYRLLKIEQ | – | – | – | – | NGS count [2, 8]: 2068
33 | KMQKWKDALYEAANLS | – | – | 4427 | 1.66% | –
34 | WDFASNMEQFWDRLYY | 7352 | 2.83% | – | – | –
35 | VEPTQVRKQSGAVENA | – | – | 2283 | 0.86% | –
36 | EWIREQLRPALKERLP | – | – | 2354 | 0.88% | NGS count [1, 4]: 16821; Population [1, 5]: 4.90%
37 | YNFISHLYDALHRNRI | – | – | 2678 | 1.01% | NGS count [1, 4]: 2891; Population [1, 5]: 0.84%
38 | LQNQWKLALTKVANLV | – | – | 2285 | 0.86% | –
39 | SELRVVDDGSVSPLEM | – | – | – | – | NGS count [1, 4]: 4872; Population [1, 5]: 1.42%
40 | VQWDDPWFWDKLAYAM | 4902 | 1.89% | – | – | –
41 | KFIWDIINAISSQIRV | – | – | – | – | NGS count [2, 8]: 146
42 | QLIQQWIELHLHQLHL | 1605 | 0.62% | – | – | NGS count [2, 8]: 9394; Population [2, 9]: 2.90%
43 | NELVHVWSSKANSLVG | – | – | 1836 | 0.69% | NGS count [1, 4]: 8816; Population [1, 5]: 2.57%
44 | IDDDHLTYLVRLLLSR | 3059 | 1.18% | – | – | –
45 | SSFREGLWRLLELSKK | – | – | 29955 | 11.26% | NGS count [1, 4]: 79510; Population [1, 5]: 23.15%
46 | VEPTQVRKQSGAVENA | – | – | – | – | NGS count [3]: 2280 count; Population [3]: 0.86%
47 | HQAFWNRLWAKLKPPT | – | – | – | – | NGS count [3]: 1930 count; Population [3]: 0.73%
48 | PNLRTKVLNYLMRTKT | – | – | – | – | NGS count [3]: 26900 count; Population [3]: 10.1%
49 | RGFLSHLRHHLQAKDH | – | – | – | – | NGS count [3]: 15100 count; Population [3]: 5.66%
